pIC50: −log10 of the molar value. Like-named read-outs stand apart in the source and are kept apart here.
Key:
PRK1 kinase = PRK1 kinase (Homo sapiens, UniProt Q16512); assay: PRK1 kinase inhibition; assay type: biochemical
Axl kinase = biological target: T1, Axl kinase (Homo sapiens, UniProt P30530); assay: Phospho-Akt in-cell Western assay (Axl antibody cross-linking, Hela cells); assay type: cell-based; conditions: phospho-Akt readout, read-out: IC50, inhibition of Axl kinase
T1 construct: endogenous in cells; host or cells: HeLa cells
T1 sequence (P30530 26-894): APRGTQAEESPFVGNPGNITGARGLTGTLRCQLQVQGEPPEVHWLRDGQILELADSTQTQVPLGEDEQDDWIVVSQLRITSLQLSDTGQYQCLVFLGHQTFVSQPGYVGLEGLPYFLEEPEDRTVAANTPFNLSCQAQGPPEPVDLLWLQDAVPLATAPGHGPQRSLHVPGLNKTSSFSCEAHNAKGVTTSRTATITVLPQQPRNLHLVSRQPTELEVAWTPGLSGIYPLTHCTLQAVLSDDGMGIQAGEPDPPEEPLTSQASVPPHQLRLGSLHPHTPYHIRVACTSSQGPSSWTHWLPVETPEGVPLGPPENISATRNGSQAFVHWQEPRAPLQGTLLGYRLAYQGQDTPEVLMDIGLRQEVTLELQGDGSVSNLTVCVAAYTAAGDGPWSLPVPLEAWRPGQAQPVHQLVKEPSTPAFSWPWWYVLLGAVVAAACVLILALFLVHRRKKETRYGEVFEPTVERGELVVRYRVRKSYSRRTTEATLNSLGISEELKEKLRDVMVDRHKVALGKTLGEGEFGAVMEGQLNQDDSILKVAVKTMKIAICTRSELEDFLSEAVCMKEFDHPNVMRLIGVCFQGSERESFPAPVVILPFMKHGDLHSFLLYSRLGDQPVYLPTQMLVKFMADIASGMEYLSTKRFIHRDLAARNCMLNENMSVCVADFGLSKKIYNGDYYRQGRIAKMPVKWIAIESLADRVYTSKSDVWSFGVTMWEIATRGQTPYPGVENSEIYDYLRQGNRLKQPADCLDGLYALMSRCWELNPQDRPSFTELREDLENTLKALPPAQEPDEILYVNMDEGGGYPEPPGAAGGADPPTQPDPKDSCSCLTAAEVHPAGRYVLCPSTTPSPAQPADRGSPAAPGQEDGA
Method in brief: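 HeLa cells were starved 24 h in 0.5% FCS with 500 ng/mL Axl/Fc, pretreated with compound 1 h at 37 °C, then stimulated 5 min by cross-linked anti-Axl antibodies. Phospho-Akt was detected by in-cell chemiluminescent immunoassay and normalized to crystal violet cell number at 590 nm.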

Syk kinase = Syk kinase (Homo sapiens, UniProt P43405); assay: cell-based Syk assay; conditions: read-out: IC50, inhibition of Syk kinase
Aurora kinase B = Aurora kinase B (Homo sapiens, UniProt Q96GD4); conditions: compared to the (1S,2S,3R,4R) diastereomers; cited from earlier work
tumor cell lines = conditions: cited from earlier work; for antiproliferative activity against tumor cell types: in vitro assays, variety of tumor cell lines
Aurora kinases = conditions: cited from earlier work

Chain of PRK1 kinase (Q16512 whole entry): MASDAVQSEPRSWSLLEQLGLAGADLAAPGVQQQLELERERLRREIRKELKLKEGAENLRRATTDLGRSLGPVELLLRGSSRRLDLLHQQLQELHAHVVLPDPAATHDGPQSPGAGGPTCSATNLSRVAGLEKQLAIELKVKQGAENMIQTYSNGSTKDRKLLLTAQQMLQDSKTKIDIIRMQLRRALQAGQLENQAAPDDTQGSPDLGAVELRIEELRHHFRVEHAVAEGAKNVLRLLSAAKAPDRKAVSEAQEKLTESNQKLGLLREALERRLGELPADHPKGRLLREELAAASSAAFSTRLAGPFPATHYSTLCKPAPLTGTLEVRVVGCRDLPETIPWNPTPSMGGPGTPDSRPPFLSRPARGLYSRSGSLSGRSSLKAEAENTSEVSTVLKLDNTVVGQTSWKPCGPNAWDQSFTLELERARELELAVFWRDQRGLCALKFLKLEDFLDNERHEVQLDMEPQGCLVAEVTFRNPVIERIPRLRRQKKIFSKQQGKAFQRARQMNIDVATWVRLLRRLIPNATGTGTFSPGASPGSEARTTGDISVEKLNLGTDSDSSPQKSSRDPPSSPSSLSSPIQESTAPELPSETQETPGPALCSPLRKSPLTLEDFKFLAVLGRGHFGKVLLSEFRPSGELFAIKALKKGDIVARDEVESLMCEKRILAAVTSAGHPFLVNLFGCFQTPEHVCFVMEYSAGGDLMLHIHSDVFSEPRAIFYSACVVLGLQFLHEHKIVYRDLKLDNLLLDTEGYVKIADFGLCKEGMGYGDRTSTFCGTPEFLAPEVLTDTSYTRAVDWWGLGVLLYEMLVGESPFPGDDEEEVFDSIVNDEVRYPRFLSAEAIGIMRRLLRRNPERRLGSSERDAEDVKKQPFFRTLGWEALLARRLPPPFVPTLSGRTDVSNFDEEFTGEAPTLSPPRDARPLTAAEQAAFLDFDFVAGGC
Chain of Aurora kinase B (Q96GD4 whole entry, species assumed): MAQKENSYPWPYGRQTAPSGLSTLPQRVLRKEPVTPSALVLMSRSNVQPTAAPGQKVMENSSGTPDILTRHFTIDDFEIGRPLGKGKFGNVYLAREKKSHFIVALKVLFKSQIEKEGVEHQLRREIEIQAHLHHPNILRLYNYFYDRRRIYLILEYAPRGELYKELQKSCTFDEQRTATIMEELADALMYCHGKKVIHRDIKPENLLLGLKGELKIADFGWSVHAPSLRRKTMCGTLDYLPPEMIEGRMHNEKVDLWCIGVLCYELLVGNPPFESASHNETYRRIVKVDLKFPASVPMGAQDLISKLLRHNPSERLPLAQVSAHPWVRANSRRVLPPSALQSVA

Row | Structure (SMILES) | pIC50 (PRK1 kinase) | pIC50 (Axl kinase) | inhibition of Aurora kinases (Aurora kinases) | antiproliferative activity against tumor cell types (tumor cell lines) | further results
1 | N#Cc1ccc(-c2ccc(Nc3nc(NC4C5C=CC(C5)C4C(N)=O)c4cc[nH]c4n3)cc2)cc1 (racemic) [Compound 220, Racemic-(2-exo,3-exo)-N4-(3-aminocarbonylbicyclo [2.2.1]hept-5-en-2-yl)-N2-[(4′-cyano[1,1′-biphenyl]-4-yl)]-1H-pyrrolo[2,3-d]pyrimidine-2,4-diamine] | > 5.30 | < 5.00 | – | – | –
2 | NC(=O)C1C2C=CC(C2)C1Nc1nc(Nc2cccc(CN3CCOCC3)c2)nc2[nH]ccc12 (racemic) [Compound 221, Racemic-(2-exo,3-exo)-N4-(3-aminocarbonylbicyclo [2.2.1]hept-5-en-2-yl)-N2-(3-morpholin-4-yl-methylphenyl)-1H-pyrrolo[2,3-d]pyrimidine-2,4-diamine] | > 5.30 | > 5.30 | – | – | pIC50 (Syk kinase): > 5.30
3 | Cc1cc(Nc2ncc(F)c(NC3C4C=CC(C4)C3C(N)=O)n2)ccc1N1CCN(C)CC1 [(1R,2R,3S,4S) diastereomer, N4-(3-aminocarbonylbicyclo [2.2.1]hept-5-en-2-yl)-5-fluoro-N2-[3-methyl-4-(4-methylpiperazin-1-yl)phenyl]-2,4-pyrimidinediamine] | – | – | – | – | inhibition of Aurora kinase B in cells (Aurora kinase B): similarly superior results; potency of (1R,2R,3S,4S) diastereomer relative to (1S,2S,3R,4R) diastereomer (tumor cell lines): approximately 1000 fold; IC50s against tumor cell lines (tumor cell lines; isolated stereoisomers): nanomolar range
4 | Cc1cc(Nc2ncc(F)c(NC3CCCC3C(N)=O)n2)ccc1N1CCN(C)CC1 [cis (1R,2S), N4-(2-aminocarbonylcyclopent-1-yl)-5-fluoro-N2-[4-(4-methylpiperazin-1-yl)-3-methylphenyl]-2,4-pyrimidinediamine] | – | – | inhibited Aurora kinases | inhibit the proliferation | antiproliferative activity against tumor cell types (tumor cell lines; listed as (1R,2S)): exhibited antiproliferative activity
5 | Cc1cc(Nc2ncc(F)c(NC3CCCC3C(N)=O)n2)ccc1N1CCN(C)CC1 [cis (1S,2R), N4-(2-aminocarbonylcyclopent-1-yl)-5-fluoro-N2-[4-(4-methylpiperazin-1-yl)-3-methylphenyl]-2,4-pyrimidinediamine] | – | – | inhibited Aurora kinases | inhibit the proliferation | antiproliferative activity against tumor cell types (tumor cell lines; listed as cis(1S,2R)): exhibited antiproliferative activity
6 | Cc1cc(Nc2ncc(F)c(NC3CCCC3C(N)=O)n2)ccc1N1CCN(C)CC1 [trans (1R,2R) diastereomer, N4-(2-aminocarbonylcyclopent-1-yl)-5-fluoro-N2-[4-(4-methylpiperazin-1-yl)-3-methylphenyl]-2,4-pyrimidinediamine] | – | – | inhibited Aurora kinases | inhibit the proliferation | antiproliferative activity against tumor cell types (tumor cell lines; listed as trans(1R,2R)): exhibited antiproliferative activity
